Assays:
[1] = target: T1, DNA (cytosine-5)-methyltransferase 1 (Homo sapiens, UniProt P26358)
Description: Inhibition of human recombinant DNMT1

[2] = target: DNA (cytosine-5)-methyltransferase 3B (Homo sapiens, UniProt Q9UBC3)
Description: Inhibition of human recombinant DNMT3b2

[3] = target: T1, DNA (cytosine-5)-methyltransferase 1; settings: 45 uM
Description: Inhibition of human recombinant DNMT1 at 45 uM

T1 sequence (P26358 whole entry): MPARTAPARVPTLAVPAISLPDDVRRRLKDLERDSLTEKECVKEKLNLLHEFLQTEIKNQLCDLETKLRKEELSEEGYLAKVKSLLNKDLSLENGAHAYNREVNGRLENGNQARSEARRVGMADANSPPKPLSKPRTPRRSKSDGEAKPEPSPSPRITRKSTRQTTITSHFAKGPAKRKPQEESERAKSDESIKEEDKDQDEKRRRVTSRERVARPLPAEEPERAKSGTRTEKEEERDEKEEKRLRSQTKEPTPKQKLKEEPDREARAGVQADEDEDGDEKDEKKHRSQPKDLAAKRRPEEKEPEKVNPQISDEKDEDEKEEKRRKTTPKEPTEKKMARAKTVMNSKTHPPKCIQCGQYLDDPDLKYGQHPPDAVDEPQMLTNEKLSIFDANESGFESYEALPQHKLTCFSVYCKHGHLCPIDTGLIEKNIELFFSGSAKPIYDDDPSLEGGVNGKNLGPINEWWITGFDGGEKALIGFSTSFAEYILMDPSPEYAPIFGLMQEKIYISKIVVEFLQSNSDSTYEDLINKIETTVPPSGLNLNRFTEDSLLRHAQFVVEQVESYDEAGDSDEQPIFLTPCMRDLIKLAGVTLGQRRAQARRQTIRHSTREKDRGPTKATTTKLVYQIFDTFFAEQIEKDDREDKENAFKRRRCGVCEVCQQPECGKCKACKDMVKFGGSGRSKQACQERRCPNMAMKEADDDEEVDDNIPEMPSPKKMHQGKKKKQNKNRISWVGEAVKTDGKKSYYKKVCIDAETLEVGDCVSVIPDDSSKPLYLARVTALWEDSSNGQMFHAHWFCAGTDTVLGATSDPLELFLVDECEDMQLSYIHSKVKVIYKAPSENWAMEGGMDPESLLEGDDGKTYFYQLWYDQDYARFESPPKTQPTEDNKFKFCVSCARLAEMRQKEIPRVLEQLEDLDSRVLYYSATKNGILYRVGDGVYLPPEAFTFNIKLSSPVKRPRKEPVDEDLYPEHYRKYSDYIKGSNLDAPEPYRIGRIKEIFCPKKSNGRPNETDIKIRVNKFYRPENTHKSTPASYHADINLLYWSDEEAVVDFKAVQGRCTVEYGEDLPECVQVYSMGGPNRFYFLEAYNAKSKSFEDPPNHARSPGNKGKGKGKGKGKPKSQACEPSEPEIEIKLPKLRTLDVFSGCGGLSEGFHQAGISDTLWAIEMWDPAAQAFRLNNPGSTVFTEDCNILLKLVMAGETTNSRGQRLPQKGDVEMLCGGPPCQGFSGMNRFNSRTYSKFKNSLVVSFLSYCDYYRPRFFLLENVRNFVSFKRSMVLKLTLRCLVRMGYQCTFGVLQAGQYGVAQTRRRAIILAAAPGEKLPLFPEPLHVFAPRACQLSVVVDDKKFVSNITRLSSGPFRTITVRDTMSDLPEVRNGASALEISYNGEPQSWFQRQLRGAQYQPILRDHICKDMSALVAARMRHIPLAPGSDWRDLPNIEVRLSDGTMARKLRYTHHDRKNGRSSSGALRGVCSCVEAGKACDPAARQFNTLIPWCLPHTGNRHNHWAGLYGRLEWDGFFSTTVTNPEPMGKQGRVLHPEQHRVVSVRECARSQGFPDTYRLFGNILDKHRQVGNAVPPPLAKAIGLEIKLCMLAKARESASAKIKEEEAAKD

IC50 [1] [µM] | IC50 [2] [µM] | inhibition [3] [%] | SMILES
> 10 |  |  | CN1CC[C@@H](SC[C@H]2O[C@@H](n3cnc4c(N)ncnc43)[C@H](O)[C@@H]2O)C1
4 |  |  | COC(=O)[C@@H]1C[C@H](SC[C@H]2O[C@@H](n3cnc4c(N)ncnc43)[C@H](O)[C@@H]2O)CN1
2.5 |  |  | O=C(O)[C@@H]1C[C@H](SC[C@H]2O[C@@H](n3cnc4c(NCCc5ccc(-c6ccccc6)cc5)nc(Cl)nc43)[C@H](O)[C@@H]2O)CN1
 |  | 18 | Nc1ncnc2c1ncn2[C@@H]1O[C@H](CS[C@H]2CCCNC2)[C@@H](O)[C@H]1O
1.1 | 0.3 |  | Nc1ncnc2c1ncn2[C@@H]1O[C@H](CS[C@@H]2CN[C@H](C(=O)O)C2)[C@@H](O)[C@H]1O
 |  | 1 | NC(=O)[C@@H]1C[C@H](SC[C@H]2O[C@@H](n3cnc4c(N)ncnc43)[C@H](O)[C@@H]2O)CN1
4.8 | 12 |  | Nc1ncnc2c1ncn2[C@@H]1O[C@H](CS[C@@H]2CCNC2)[C@@H](O)[C@H]1O
8 |  |  | Nc1ncnc2c1ncn2[C@@H]1O[C@H](CS[C@H]2CCN[C@H](C(=O)O)C2)[C@@H](O)[C@H]1O
 | 0.2 |  | Nc1ncnc2c1ncn2[C@@H]1O[C@H](CSCC[C@H](N)C(=O)O)[C@@H](O)[C@H]1O [S-ADENOSYLHOMOCYSTEINE]

Continued, compound first:

SMILES | IC50 [1] [µM] | IC50 [2] [µM] | inhibition [3] [%]
Nc1ncnc2c1ncn2[C@@H]1O[C@H](CS[C@H]2CCN[C@@H](C(=O)O)C2)[C@@H](O)[C@H]1O | > 100 |  | 
NCCCSC[C@H]1O[C@@H](n2cnc3c(N)ncnc32)[C@H](O)[C@@H]1O | > 45 | 17 | 
Nc1nc(Cl)nc2c1ncn2C1O[C@H](CS[C@@H]2CN[C@H](C(=O)O)C2)[C@@H](O)[C@H]1O (single isomer, unassigned) | 0.82 |  | 
Nc1ncnc2c1ncn2[C@@H]1O[C@H](CS[C@H]2CCNC2)[C@@H](O)[C@H]1O | 44 | 26 | 
Nc1ncnc2c1ncn2[C@@H]1O[C@H](CSC2CNC2)[C@@H](O)[C@H]1O |  | > 100 | 
CN1C[C@@H](SC[C@H]2O[C@@H](n3cnc4c(N)ncnc43)[C@H](O)[C@@H]2O)C[C@H]1C(=O)O | > 100 |  | 
Nc1nc(Cl)nc2c1ncn2C1O[C@H](CS[C@H]2CCNC2)[C@@H](O)[C@H]1O (single isomer, unassigned) |  | > 45 | 
COC(=O)[C@@H]1C[C@H](SC[C@H]2O[C@@H](n3cnc4c(N)ncnc43)[C@H](O)[C@@H]2O)CN1C | 4.5 |  | 
NCCSC[C@H]1O[C@@H](n2cnc3c(N)ncnc32)[C@H](O)[C@@H]1O | 18 |  | 
Nc1ncnc2c1ncn2[C@@H]1O[C@H](CS[C@@H]2CCC[C@@H]2N)[C@@H](O)[C@H]1O | 94 |  | 
Nc1ncnc2c1ncn2[C@@H]1O[C@H](CS[C@H]2CN[C@H](C(=O)O)C2)[C@@H](O)[C@H]1O | > 100 | 54 | 
Nc1ncnc2c1ncn2[C@@H]1O[C@H](CS[C@@H]2CCN[C@H](C(=O)O)C2)[C@@H](O)[C@H]1O | > 100 |  | 

From ChEMBL document CHEMBL1151876, “Constrained (l-)-S-adenosyl-l-homocysteine (SAH) analogues as DNA methyltransferase inhibitors” (Bioorg Med Chem Lett, 2009)
